# Source: PubChem BioAssay AID2060505 (Molecular Pharmacology Branch, DTP, NCI, 2025)
# Test system: 633275-114-R-J1-PDC complex spheroids, viability
# Assay: Anticancer human tumor 633275-114-R-J1-PDC patient-derived endometrial adenocarcinoma cell line growth inhibition [GQUAD]
# Conditions: for IC50: curve of first compound; for viability, T/C: stronger effect = lower value
# Procedure, shortened: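 Tumor cells were grown as complex spheroids with HUVEC endothelial cells and mesenchymal stem cells as stroma. G-quadruplex stabilizers were combined with targeted agents over half-log dilutions from near the clinical Cmax, or from 10 microM.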
# [1] = second compound 0.0316 µM, first compound 0.0316 µM
# [2] = second compound 0.0316 µM, first compound 0.316 µM
# [3] = second compound 0.1 µM, first compound 0.0316 µM
# [4] = second compound 0.1 µM, first compound 0.316 µM
# [5] = second compound 0.316 µM, first compound 0.0316 µM
# [6] = second compound 0.316 µM, first compound 0.316 µM
# [7] = second compound 1 µM, first compound 0.0316 µM
# [8] = second compound 1 µM, first compound 0.316 µM
# [9] = second compound 3.16 µM, first compound 0.0316 µM
# [10] = second compound 3.16 µM, first compound 0.316 µM
# [11] = second compound 10 µM, first compound 0.0316 µM
# [12] = second compound 10 µM, first compound 0.316 µM
# [13] = second compound 0.0316 µM, first compound 0.1 µM
# [14] = second compound 0.0316 µM, first compound 1 µM
# [15] = second compound 0.0316 µM, first compound 3.16 µM
# [16] = second compound 0.0316 µM, first compound 10 µM
# [17] = second compound 0.1 µM, first compound 0.1 µM
# [18] = second compound 0.1 µM, first compound 1 µM
# [19] = second compound 0.1 µM, first compound 3.16 µM
# [20] = second compound 0.1 µM, first compound 10 µM
# [21] = second compound 0.316 µM, first compound 0.1 µM
# [22] = second compound 0.316 µM, first compound 1 µM
# [23] = second compound 0.316 µM, first compound 3.16 µM
# [24] = second compound 0.316 µM, first compound 10 µM
# [25] = second compound 1 µM, first compound 0.1 µM
# [26] = second compound 1 µM, first compound 1 µM
# [27] = second compound 1 µM, first compound 3.16 µM
# [28] = second compound 1 µM, first compound 10 µM
# [29] = second compound 3.16 µM, first compound 0.1 µM
# [30] = second compound 3.16 µM, first compound 1 µM
# [31] = second compound 3.16 µM, first compound 3.16 µM
# [32] = second compound 3.16 µM, first compound 10 µM
# [33] = second compound 10 µM, first compound 0.1 µM
# [34] = second compound 10 µM, first compound 1 µM
# [35] = second compound 10 µM, first compound 3.16 µM
# [36] = second compound 10 µM, first compound 10 µM
# 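Also: spheroids exposed to the agents for seven days.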
# 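For viability, T/C in this document: percent of DMSO vehicle control viability which is 100%.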
compound,measurement,setting,value
Cc1[nH]c2ccccc2c1CCNCc1ccc(/C=C/C(=O)NO)cc1 + Cc1[nH]c2ccc(F)cc2c1-c1nc2c3cccnc3c3ncccc3c2[nH]1,IC50,second compound 0.0316 µM,63 nM
same,IC50,second compound 0.1 µM,83.5 nM
same,IC50,second compound 0.316 µM,65.7 nM
same,IC50,second compound 1 µM,54.6 nM
same,IC50,second compound 3.16 µM,21 nM
same,IC50,second compound 10 µM,16.2 nM
same,"viability, T/C","second compound 0.0316 µM, first compound 0.000999 µM",103%
same,"viability, T/C","second compound 0.0316 µM, first compound 0.00316 µM",85.6%
same,"viability, T/C","second compound 0.0316 µM, first compound 0.00999 µM",79.1%
same,"viability, T/C",[1],64.2%
same,"viability, T/C","second compound 0.0316 µM, first compound 0.0999 µM",41.4%
same,"viability, T/C",[2],19.3%
same,"viability, T/C","second compound 0.1 µM, first compound 0.000999 µM",90.6%
same,"viability, T/C","second compound 0.1 µM, first compound 0.00316 µM",90.4%
same,"viability, T/C","second compound 0.1 µM, first compound 0.00999 µM",81.6%
same,"viability, T/C",[3],70.5%
same,"viability, T/C","second compound 0.1 µM, first compound 0.0999 µM",46.1%
same,"viability, T/C",[4],17.3%
same,"viability, T/C","second compound 0.316 µM, first compound 0.000999 µM",94%
same,"viability, T/C","second compound 0.316 µM, first compound 0.00316 µM",94%
same,"viability, T/C","second compound 0.316 µM, first compound 0.00999 µM",71.2%
same,"viability, T/C",[5],62.3%
same,"viability, T/C","second compound 0.316 µM, first compound 0.0999 µM",44.8%
same,"viability, T/C",[6],19.7%
same,"viability, T/C","second compound 1 µM, first compound 0.000999 µM",87.6%
same,"viability, T/C","second compound 1 µM, first compound 0.00316 µM",78.7%
same,"viability, T/C","second compound 1 µM, first compound 0.00999 µM",71.7%
same,"viability, T/C",[7],57.2%
same,"viability, T/C","second compound 1 µM, first compound 0.0999 µM",41.9%
same,"viability, T/C",[8],21.2%
same,"viability, T/C","second compound 3.16 µM, first compound 0.000999 µM",69.8%
same,"viability, T/C","second compound 3.16 µM, first compound 0.00316 µM",64.9%
same,"viability, T/C","second compound 3.16 µM, first compound 0.00999 µM",53.6%
same,"viability, T/C",[9],45.1%
same,"viability, T/C","second compound 3.16 µM, first compound 0.0999 µM",41.3%
same,"viability, T/C",[10],21.7%
same,"viability, T/C","second compound 10 µM, first compound 0.000999 µM",62%
same,"viability, T/C","second compound 10 µM, first compound 0.00316 µM",65.4%
same,"viability, T/C","second compound 10 µM, first compound 0.00999 µM",48.7%
same,"viability, T/C",[11],45.5%
same,"viability, T/C","second compound 10 µM, first compound 0.0999 µM",36.4%
same,"viability, T/C",[12],20.8%
Nc1ccn(C2OC(CO)C(O)C2(F)F)c(=O)n1 (stereo unspecified) + Cc1[nH]c2ccc(F)cc2c1-c1nc2c3cccnc3c3ncccc3c2[nH]1,IC50,second compound 0.0316 µM,< 31.6 nM
same,IC50,second compound 0.1 µM,< 31.6 nM
same,IC50,second compound 0.316 µM,< 31.6 nM
same,IC50,second compound 1 µM,< 31.6 nM
same,IC50,second compound 3.16 µM,< 31.6 nM
same,IC50,second compound 10 µM,< 31.6 nM
same,"viability, T/C",[1],29.7%
same,"viability, T/C",[13],25.6%
same,"viability, T/C",[2],25.9%
same,"viability, T/C",[14],26.4%
same,"viability, T/C",[15],22.9%
same,"viability, T/C",[16],24.4%
same,"viability, T/C",[3],33.2%
same,"viability, T/C",[17],24.3%
same,"viability, T/C",[4],26.4%
same,"viability, T/C",[18],27.3%
same,"viability, T/C",[19],24.8%
same,"viability, T/C",[20],20.9%
same,"viability, T/C",[5],31.2%
same,"viability, T/C",[21],28.8%
same,"viability, T/C",[6],26.1%
same,"viability, T/C",[22],24.2%
same,"viability, T/C",[23],27.1%
same,"viability, T/C",[24],19.9%
same,"viability, T/C",[7],30.9%
same,"viability, T/C",[25],25.6%
same,"viability, T/C",[8],26%
same,"viability, T/C",[26],25.9%
same,"viability, T/C",[27],24%
same,"viability, T/C",[28],20.1%
same,"viability, T/C",[9],26.1%
same,"viability, T/C",[29],24.4%
same,"viability, T/C",[10],22.6%
same,"viability, T/C",[30],23.4%
same,"viability, T/C",[31],25.7%
same,"viability, T/C",[32],17.9%
same,"viability, T/C",[11],26.8%
same,"viability, T/C",[33],24.5%
same,"viability, T/C",[12],23.8%
same,"viability, T/C",[34],24.1%
same,"viability, T/C",[35],22.5%
same,"viability, T/C",[36],18.8%
O=C(NO)c1cnc(N2CCN(S(=O)(=O)c3ccc4ccccc4c3)CC2)nc1 + Cc1[nH]c2ccc(F)cc2c1-c1nc2c3cccnc3c3ncccc3c2[nH]1,IC50,second compound 0.0316 µM,371 nM
same,IC50,second compound 0.1 µM,527 nM
same,IC50,second compound 0.316 µM,574 nM
same,IC50,second compound 1 µM,492 nM
same,IC50,second compound 3.16 µM,336 nM
same,IC50,second compound 10 µM,362 nM
same,"viability, T/C",[1],88.1%
same,"viability, T/C",[13],77.9%
same,"viability, T/C",[2],51.7%
same,"viability, T/C",[14],29%
same,"viability, T/C",[15],16.9%
same,"viability, T/C",[16],5.26%
same,"viability, T/C",[3],91.7%
same,"viability, T/C",[17],83.9%
same,"viability, T/C",[4],63.5%
same,"viability, T/C",[18],32.1%
same,"viability, T/C",[19],16%
same,"viability, T/C",[20],3.49%
same,"viability, T/C",[5],82.3%
same,"viability, T/C",[21],86.2%
same,"viability, T/C",[6],62.4%
same,"viability, T/C",[22],34.7%
same,"viability, T/C",[23],18.5%
same,"viability, T/C",[24],1.56%
same,"viability, T/C",[7],91.3%
same,"viability, T/C",[25],77.2%
same,"viability, T/C",[8],57.9%
same,"viability, T/C",[26],37%
same,"viability, T/C",[27],17.2%
same,"viability, T/C",[28],1.48%
same,"viability, T/C",[9],72.3%
same,"viability, T/C",[29],60.2%
same,"viability, T/C",[10],52.6%
same,"viability, T/C",[30],35.2%
same,"viability, T/C",[31],15.8%
same,"viability, T/C",[32],2.67%
same,"viability, T/C",[11],62.1%
same,"viability, T/C",[33],58.3%
same,"viability, T/C",[12],54.8%
same,"viability, T/C",[34],32.5%
same,"viability, T/C",[35],17.8%
same,"viability, T/C",[36],3.92%
